Data set [1] deals with RhoA-GTP. The data set can be described thus: G-LISA activation assay, RhoA. It is filed as cell-based, human. Particulars: starved MDA-MB-231, n = 3. How it is done:
(§1) Cells were seeded in six-well plates (5 × 10^5 cells per well) and maintained for 12 h in a CO2 incubator. To measure Rac-1, RhoA and CDC42 GTPases, they were treated with 10 µM NT4 in DMEM-0.1% BSA, serum-free, for 12 h at 37 °C and then incubated with 0.1 μg/mL hEGF (Cell Signaling) for 2 min for Rac-1 and CDC42 GTPases and for 5 min for RhoA GTPase. Cells were washed with cold PBS, lysed and processed for colorimetric G-LISA activation assays (Cytoskeleton, Denver, CO, USA), according to the manufacturer’s instructions. The activated forms of the G proteins were detected by incubation with specific primary antibody, followed by a secondary antibody conjugated with HRP and a detection reagent. The signal was read by measuring absorbance at 490 nm using a microplate reader. The experiment was repeated three times.

Data set [2] has as its system CDC42-GTP. In words: G-LISA activation assay, CDC42. It is filed as cell-based, human. Particulars: starved MDA-MB-231. How it is done: as §1, with “The experiment was repeated three times.” left out
For data set [3], the system named is Rac1-GTP. The data set can be described thus: G-LISA activation assay, Rac1. Format: cell-based, human. Particulars: starved MDA-MB-231. How it is done: as §1
Data set [4] deals with NT4 internalization in MDA-MB-231 cells. The data set can be described thus: Inhibition of NT4 internalization by pharmacological agents, confocal microscopy. Conditions: for reduction of NT4 internalization: ±13%. It is filed as cell-based, human. How it is done: (§2) MDA-MB-231 cells were plated at a density of 5 × 10^4 per well in 24-well plates with glass cover slides and maintained overnight at 37 °C, 5% CO2.
Cells were pretreated for 15 min with 1–10 μg/mL Chlorpromazine (Merck, Darmstadt, Germany), 25 μg/mL Nystatin (Merck), 80 μM Dynasore (Merck) and 50 µM Amiloride (Merck) at 37 °C and then incubated with 2 μM NT4-biotin and 0.5 μg/mL Streptavidin-Atto 488 in PBS-1% BSA at room temperature for 15 min. To study macropinocytosis in the presence of Amiloride, 5 mg/mL Rhodamine B isothiocyanate–Dextran in PBS-1% BSA (Merck) was incubated at room temperature for 15 min. Cells were then washed and grown in medium, with and without pharmacological agents, for 15 and 30 min at 37 °C to allow peptide internalization. After internalization, they were fixed with PBS-4% PFA and plasma membranes were stained with 2.5 μg/mL wheat germ agglutinin, Alexa Fluor 647 (Thermo Fisher Scientific) conjugate in PBS-1% BSA, incubated for 10 min at room temperature. Nuclei were stained with DAPI (0.5 μg/mL in PBS-1% BSA). Each step was followed by three washes in PBS.
Peptide binding was analyzed by confocal laser microscope (Leica TCS SP5) with 501 λ ex and 523 λ em for Atto 488, 633 λ ex and 660–680 λ em for Atto 647 and 364 λ ex and 458 λ em for DAPI. Images were single Z-planes for all channels used. All images were processed and quantified using the Leica Application Suite X program (LAS X) of the confocal laser microscope (Leica TCS SP5). The experiment was repeated at least three times and at least three different fields were acquired for each sample.

Data set [5] has as its system Rac-1-GTP. The data set can be described thus: Rac1 pulldown assay (GST-PAK1-PBD beads, immunoblot). It is filed as cell-based, human. Particulars: MDA-MB-231, no EGF. How it is done: Rac1 activity was measured by pulldown assay using the active Rac1 detection kit (Cell Signaling), according to the manufacturer’s instructions. Cells were seeded in six-well plates (5 × 10^5 cells per well) and maintained for 24 h in a CO2 incubator. Cells were washed with cold PBS and lysed. Protein lysates were centrifuged and the supernatant was collected in new tubes containing beads pre-coupled with GST–PAK1-PBD and incubated under rotation at 4 °C for 60 min. The beads were washed and the proteins bound to them were separated by SDS-PAGE. The amounts of active Rac1 were determined by immunoblot analysis. Signals were detected using a LAS4010 imaging system (GE Healthcare, Chicago, IL, USA).
(In western blotting, separated proteins are transferred to a membrane and probed.)

Data set [6] has as its system MDA-MB231 cells. Particulars: flow cytometry; cited from earlier work. How it is done: The peptide bound to the plasma membrane (Figure 1A), most was internalized in cells within 15–30 min (Figure 1B,C) and it was completely endocytosed within 1 h (Figure 1D). The antibody anti-HS clone 10E4 [20], the epitope of which includes an N-sulfated glucosamine r ...
A general note: A flow cytometer gives signals particle by particle.

Data set [7] relates to MDA-MB-231 cells. The data set can be described thus: NT4 binding to plasma membrane and internalization, confocal immunofluorescence. Format: cell-based, human. Particulars: confocal microscopy. How it is done:
as §2
Cells were incubated with 2 μM NT4-biotin and 0.5 μg/mL Streptavidin-Atto 488 in PBS-1% BSA at room temperature for 15 min, then washed and grown in medium for 5, 15 and 30 min at 37 °C to allow peptide internalization. They were then fixed with PBS-4% paraformaldehyde (PFA) and saturated with PBS-5% BSA 0.3%-Triton X-100. HS was stained using 1 µg/mL anti-heparan sulfate (10E4 epitope) (Amsbio, Abingdon, UK) in PBS-1% BSA for 1 h, followed by incubation with 1 μg/mL anti-mouse IgG Rhodamine Red-X (Thermo Fisher Scientific, Waltham, MA, USA). Nuclei were stained with DAPI (0.5 μg/mL in PBS-1% BSA). Each step was followed by three washes in PBS. Peptide binding was analyzed by confocal laser microscope (Leica TCS SP5) with 380 λ ex and 450–470 λ em, 501 λ ex and 523 λ em and 633 λ ex and 660–680 λ em for DAPI, Atto 488 and Atto 647, respectively. The experiment was repeated three times and three different fields were acquired for each sample.

The test system of data set [8] is proteolytic enzymes. Conditions: imparted by branched structure; cited from earlier work. From the text:
NT4 is a tetrabranched peptide obtained by synthesizing four copies of the 13-amino-acid sequence on a branched core of lysines. […] The peptide has already been tested in animal models of cancer and has shown good specificity for tumor versus healthy cells. It also countered the invasive ...

In data set [9] the test system is MDA-MB-231 cells. The data set can be described thus: 2D migration, in vitro wound-healing (scratch) assay. It is filed as cell-based, human. Conditions: 10 μM NT4 in complete medium, p = 0.0428, n = 2. How it is done:
Cell migration was measured using an in vitro wound-healing assay. MDA-MB231 cells (5.25 × 10^4) were seeded on each side of a culture insert for live cell analysis (Ibidi, Munich, Germany). Inserts were placed in the wells of a 24-well plate and the cells were incubated at 37 °C and 5% CO2 to confluence. The inserts were removed with sterile tweezers to create a cell-free area of approximately 500 μm. The cells were treated with 10 μM NT4 peptide in complete medium and allowed to migrate in an appropriate incubator of a DMi8 (Leica Microsystems, Wetzlar, Germany) microscope. The same instrument was used to take pictures at time zero and every 5 min for 11 h.
The percentage of void area with respect to time 0 was determined using Tscratch. The time-lapse image stacks were also analyzed using ImageJ and the plug-in Chemotaxis and Migration Tool.

The subject of data set [10] is heparan sulfate chains. Particulars: surface plasmon resonance; cited from earlier work. (SPR reads the build-up and loss of mass on a sensor chip optically.)

As for “EGF: growth factor (hEGF, Cell Signaling) used to stimulate Rho GTPases”, the “reduction of RhoA (RhoA-GTP)” value in [1] (0.1 μg/mL hEGF 5 min alone) was 26%. In addition, the “effect on CDC42-GTP” value in data set [2] (0.1 μg/mL hEGF 2 min) is “increased”. For the same compound, the “effect on Rac1-GTP” value in [3] (0.1 μg/mL hEGF 2 min) is reported as “transiently activated”.
With `O=C(N/N=C/c1ccc(O)c(O)c1)c1cc2ccccc2cc1O` [dynasore], in data set [4] (80 μM dynasore, n = 6, p = 0.0043), the “effect on NT4 internalization” value is listed as “no longer internalized NT4”.
Regarding `N=C(N)NC(=O)c1nc(Cl)c(N)nc1N` [Amiloride], in data set [4] (50 µM amiloride pre-treatment, p = 0.0461), the “impairment of NT4 internalization” value is “more than 50%”.
Consider `CN(C)CCCN1c2ccccc2Sc2ccc(Cl)cc21` [chlorpromazine], for which the “reduction of NT4 internalization” value in data set [4] (chlorpromazine 1 μg/mL, n = 3, p = 0.0279) stood at 27%; in [4] (chlorpromazine 10 μg/mL, n = 4, p = 0.0327) it was 57%.
As for (pyELYENKPRRPYIL)4K2K-beta-Ala [NT4], the “reduction of RhoA (RhoA-GTP)” value in [1] (10 µM NT4 12 h alone, without EGF) is 20%; in data set [1] (EGF with NT4: 10 µM NT4 12 h, then 0.1 μg/mL hEGF 5 min), 21%. Also, in data set [5], the “effect on basal levels of Rac-1-GTP” value was “not affected”. Also, in data set [2] (10 µM NT4 12 h, no EGF), the “effect on CDC42 activation without EGF” value is “no effect on CDC42 activation”. The “effect on EGF-induced CDC42 activation” value in data set [2] (10 µM NT4 12 h, then 0.1 μg/mL hEGF 2 min, n = 2) is on record as “mitigates activation of CDC42 induced by the growth factor”. In [6], the “binding to MDA-MB231 cells” value is “bind to MDA-MB231 cells”. In addition, in [7] (2 μM NT4-biotin + 0.5 μg/mL Streptavidin-Atto 488, 15 min RT in PBS-1% BSA, then medium at 37 °C), the “time within which most of the peptide was internalized in cells” value was in the range of 15 to 30 min. In [7] (2 μM NT4-biotin + Streptavidin-Atto 488, 37 °C), the “time within which the peptide was completely endocytosed” value is reported as at most 1 h. In addition, the “stability against proteolytic enzymes” value in [8] is given as “stability against proteolytic enzymes”. Moreover, in data set [9], the “effect on MDA-MB-231 migration (gap closure in 8 h)” value is recorded as “slowed MDA-MB-231 migration”. Besides, in data set [10], the “binding to heparan sulfate chains” value is “bind heparan sulfate chains”. In addition, the “effect on EGF-induced Rac1 activation” value in data set [3] (10 µM NT4 12 h, then 0.1 μg/mL hEGF 2 min) is “not significantly changed”.
In the case of `C[C@@H]1[C@H](O)[C@@H](C)/C=C/C=C/CC/C=C/C=C/C=C/C=C/C(O[C@H]2O[C@H](C)[C@@H](O)[C@H](N)[C@@H]2O)CC2O[C@](O)(CC(O)C(O)CCC(O)CC(O)CC(O)CC(=O)O[C@H]1C)CC(O)C2C(=O)O` (some centres unmarked) [nystatin], the “inhibition of NT4 endocytosis” value in data set [4] (25 μg/mL nystatin, 15 min, 2 μM NT4-biotin, n = 9, p = 0.0345) is 60%.

(Values after PMC7663799, “Endocytosis and Trafficking of Heparan Sulfate Proteoglycans in Triple-Negative Breast Cancer Cells Unraveled with a Polycationic Peptide” (International Journal of Molecular Sciences, 2020).)
